Results from patent US6946482B2, “Motilide compounds” (Kosan Biosciences, Inc., priority 2002, dated 2005).
Values after ≈ are worked out from the molar mass of the structure shown. Read-outs that look alike come from different tables or passages of the source.

Columns and labels:
motilin receptor [1] = biological target: T1, motilin receptor (Homo sapiens, UniProt O43193); experiment: Motilin receptor activation, calcium-influx assay; assay type: cell-based
T1 construct: expressed in transfected cells
T1 sequence (O43193 whole entry): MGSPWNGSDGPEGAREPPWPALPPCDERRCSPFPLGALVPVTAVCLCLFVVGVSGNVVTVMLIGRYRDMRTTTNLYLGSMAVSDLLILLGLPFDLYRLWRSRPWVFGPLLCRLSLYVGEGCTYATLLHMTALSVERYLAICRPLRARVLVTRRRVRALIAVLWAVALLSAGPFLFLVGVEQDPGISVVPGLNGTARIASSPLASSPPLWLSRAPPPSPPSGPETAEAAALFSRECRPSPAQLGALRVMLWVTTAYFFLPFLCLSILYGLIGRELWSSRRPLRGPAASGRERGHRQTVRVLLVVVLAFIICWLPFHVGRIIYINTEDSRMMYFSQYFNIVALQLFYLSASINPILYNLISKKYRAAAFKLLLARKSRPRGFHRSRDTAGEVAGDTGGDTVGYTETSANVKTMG
Description: The compounds of formula (I) are agonists of the motilin receptor.

motilin receptor [2] = biological target: T1, motilin receptor; settings: cited from earlier work
[3] = test system: Streptococcus pneumoniae ATCC 6301; experiment: In vitro susceptibility test (MIC); assay type: cell-based; settings: ATCC6301
Procedure: Antibacterial activity (Table 2) was determined by in vitro susceptibility tests against Streptococcus pneumoniae ATCC 6301, a macrolide-sensitive strain, using methods known in the microbiological art.

gut contraction = settings: conscious dogs, dose 1 mg/kg; cited from earlier work
motilin receptor [4] = biological target: T1, motilin receptor; experiment: Motilin receptor desensitization, cell-based assay
Procedure: Compounds were tested for motilin receptor desensitization using the cell-based assay described in Carreras et al., US 2002/0192709 A1 (2002), “Methods for Evaluating Therapeutic Efficacy,” the disclosure of which is incorporated herein by reference.

motilin receptor [5] = biological target: T1, motilin receptor; settings: cell-based and muscle strip contractility assays; cited from earlier work
[6] = Streptococcus pneumoniae ATCC 6301, macrolide-sensitive strain, read-out: MIC

Structure (SMILES)	EC50 (motilin receptor [1]) [nM]	MIC [3, 6] [µg/mL]	other results
CCC1OC(=O)C(C)C(OC2CC(C)(OC)C(O)C(C)O2)C(C)C(OC2OC(C)CC(N(C)C)C2O)C(C)(O)CC(C)C(=O)C(C)C(O)C1(C)O (centres unmarked) [Erythromycin A, reference compound]			Motilin agonist activity (in words) (motilin receptor [2]): motilin agonist activity; MIC ([3]; Streptococcus pneumoniae): 0.03 µg/mL (≈ 0.0409 µM)
CC[C@H]1OC(=O)[C@H](C)[C@@H](OC2C[C@@](C)(OC)C[C@H](C)O2)[C@H](C)[C@@H](OC2O[C@H](C)C[C@H](N(C)C(C)C)[C@H]2O)[C@@]2(C)CC(C)=C(O2)[C@H](C)C(=O)[C@]1(C)OC (some centres unmarked) [Compound 7]			Motilin receptor desensitization (in words) (motilin receptor [5]): show motilin receptor desensitization
CCC1OC(=O)C(C)C(OC2CC(C)(OC)C(O)C(C)O2)C(C)C(OC2OC(C)CC(N(C)C(C)C)C2O)C(C)(O)CC(C)C(O)C(C)C(O)C1(C)O (centres unmarked) [B]	490		
COC1(C)CC(OC2C(C)C(=O)OC(CCF)C(C)(O)C(O)C(C)C(O)C(C)CC(C)(O)C(OC3OC(C)CC(N(C)C(C)C)C3O)C2C)OC(C)C1O [E, N-desmethyl-N-isopropyl(9S)-9-dihydro-15-fluoroerythromycin A]	520		
CCN(C)C1CC(C)OC(OC2C(C)C(OC3CC(C)(OC)C(O)C(C)O3)C(C)C(=O)OC(CCF)C(C)(O)C(O)C(C)C(O)C(C)CC2(C)O)C1O [D, N-desmethyl-N-ethyl(9S)-9-dihydro-15-fluoroerythromycin A]	2000		
CCC1OC(=O)C(C)C(OC2CC(C)(OC)C(O)C(C)O2)C(C)C(OC2OC(C)CC(N(C)C(C)C)C2O)C(C)(O)CC(C)C(O)C(C)CC1C [J, N-desmethyl-N-isopropyl-11-deoxy-(9S)-9-dihydroerythromycin B]	160	> 100	Activity following exposure to compound (% of original activity retained) (motilin receptor [4]; 1 μM compound): 88%; Activity following exposure to compound (% of original activity retained) (motilin receptor [4]; 10 μM compound): 88%

More lines, main results first:

EC50 (motilin receptor [1]) [nM]	MIC [3, 6] [µg/mL]	Structure (SMILES)	other results
3300		CCCC1OC(=O)C(C)C(OC2CC(C)(OC)C(O)C(C)O2)C(C)C(OC2OC(C)CC(N(C)C(C)CC)C2O)C(C)(O)CC(C)C(O)C(C)C(O)C1(C)O [H, N-desmethyl-N-(2-butyl) (9S)-9-dihydro-15-methylerythromycin A]	
5000		COC1(C)CC(OC2C(C)C(=O)OC(CCF)C(C)(O)C(O)C(C)C(O)C(C)CC(C)(O)C(OC3OC(C)CC(N(C)C)C3O)C2C)OC(C)C1O [C, (9S)-9-dihydro-15-fluoroerythromycin A]	
2500	0.3 (≈ 0.408 µM)	CCC1OC(=O)C(C)C(OC2CC(C)(OC)C(O)C(C)O2)C(C)C(OC2OC(C)CC(N(C)C)C2O)C(C)(O)CC(C)C(O)C(C)C(O)C1(C)O [A, (9S)-9-dihydroerythromycin A, reference compound]	Activity relative to erythromycin, stimulation of gut contraction (gut contraction): 65%
1400	> 100	CCCC1OC(=O)C(C)C(OC2CC(C)(OC)C(O)C(C)O2)C(C)C(OC2OC(C)CC(N(C)C(C)C)C2O)C(C)(O)CC(C)C(O)C(C)C(O)C1(C)O [G, N-desmethyl-N-isopropyl-15-methyl-(9S)-9-dihydroerythromycin A]	Activity following exposure to compound (% of original activity retained) (motilin receptor [4]; 1 μM compound): 100%; Activity following exposure to compound (% of original activity retained) (motilin receptor [4]; 10 μM compound): 100%
8600	1 (≈ 1.33 µM)	CCCC1OC(=O)C(C)C(OC2CC(C)(OC)C(O)C(C)O2)C(C)C(OC2OC(C)CC(N(C)C)C2O)C(C)(O)CC(C)C(O)C(C)C(O)C1(C)O [F, (9S)-9-dihydro-15-methylerythromycin A]	Activity following exposure to compound (% of original activity retained) (motilin receptor [4]; 1 μM compound): 100%; Activity following exposure to compound (% of original activity retained) (motilin receptor [4]; 10 μM compound): 100%
